Publication PMC10926604, “Discovery of a novel small molecule as CD47/SIRPα and PD-1/PD-L1 dual inhibitor for cancer immunotherapy” (Cell Communication and Signaling : CCS, 2024)

Experiments:
human SIRPα (hSIRPα) = target: T1, human SIRPα (hSIRPα) (Homo sapiens, UniProt P78324); test: MST binding assay, human SIRPα; details: SIRPα-IgV-His, read-out: dissociation constant (KD) for human SIRPα
T1 construct: SIPRα-IgV-His (human: SIA-H5225, mouse: SIA-M52H4, ACRO Biosystems); His; purchased ACRO Biosystems SIA-H5225
Method: SIPRα-IgV-His (human: SIA-H5225, mouse: SIA-M52H4, ACRO Biosystems) and PD-L1-IgV-His (human: 10,084-H08H, mouse: 50,010-M08H, Sino Biological) proteins were labeled with Red-NHS647 dye (NT-MO-L001, NanoTemper) for subsequent experiments. SMC18 (C385-0664, ChemDiv) was serially diluted using PBST (from 0.0191 μM to 200 μM) and mixed with the labeled proteins. The samples were then aspirated using standard capillaries and assayed by MST instrument (Monolith NT.115, NanoTemper), and the results were analyzed using the analytical software Monolith NT.115 system to calculate the dissociation constant (KD) values.

murine CD47/SIRPα = target: T2, murine CD47/SIRPα (Mus musculus, UniProt P97797); test: Cell-based blocking assay, murine CD47/SIRPα; details: CHO-K1-mCD47 cells, SIRPα-Fc, flow cytometry; read-out: IC50 for blocking murine CD47/SIRPα interaction
T2 construct: purchased ACRO Biosystems SIA-M5258; host or cells: CHO-K1-mCD47 cells carry the partner (lentiviral transfection)
Method: (§1) The CHO-K1 cell line with stable expression of CD47 and PD-1 was constructed previously by our group. SMC18 was serially diluted using PBS 7.2 (containing 1% DMSO) and incubated with 100 ng of SIRPα-Fc protein (human: SIA-H5251, mouse: SIA-M5258, ACRO Biosystems) and 50 ng of PD-L1-Fc protein (human: 10,084-H02H, mouse: 50,010-M02H, Sino Biological) on ice for 30 min. The mixture was then added to the corresponding CHO-K1-CD47 or CHO-K1-PD-1 cells and further incubated on ice for 30 min. Afterward, PE-conjugated anti-human IgG (Fc) antibody (A18272, eBioscience) was added. The mean fluorescence intensity (MFI) of the cells was detected using flow cytometry (BD FACSCalibur) and the blocking efficiency was calculated.

human PD-1/PD-L1 = target: T3, human PD-1/PD-L1 (Homo sapiens, UniProt Q9NZQ7); test: Cell-based blocking assay, human PD-1/PD-L1; details: CHO-K1-hPD-1 cells, PD-L1-Fc, flow cytometry; read-out: IC50 for blocking human PD-1/PD-L1 interaction
T3 construct: purchased Sino Biological 10,084-H02H; host or cells: CHO-K1-hPD-1 cells carry the partner (lentiviral transfection)
Method: as §1

B16-OVA cells = test: MTT assay, B16-OVA cells; type: cell-based, mouse; details: 100 µM; 24 h, 48 h, 72 h
Method: MC38 and B16-OVA cells were seeded into 96-well plates at a density of 3,000 cells per well, respectively and allowed to adhere overnight. SMC18 was added to the cells and incubated for 24 h, 48 h and 72 h, respectively. Cell viability was measured by adding MTT (3-(4, 5-dimethyl-2-thiazolyl)-2,5-diphenyl-2-H-tetrazolium bromide, 298–93-1, Sigma) solution and incubating for 4 h. The cells were then lysed by shaking with DMSO. The absorbance values at 490 nm were measured using a multi-mode microplate reader (Molecular Devices, SpectraMax iD5).
Fig S3. The Effect of SMC18 on Tumor Cell Proliferation in vitro. MC38 cells (3000 cells/well) and B16-OVA cells (3000 cells/well) were seeded in flat-bottomed 96-well plates and allowed to adhere overnight. Subsequently, the cells were starved for 8 hours in serum-free medium. SMC18 was diluted in complete culture medium and added to the wells, following which the cells were incubated for 24 h, 48 h, and 72 h. After the designated incubation periods, 20 μL of MTT solution was added to each well. Four hours later, the supernatant was aspirated, and 150 μL of DMSO was added to each well to dissolve the MTT formazan product. The plates were then shaken for 10 minutes, and absorbance was measured at 490 nm using a microplate reader.

MC38 tumor-bearing mice = test: Ex vivo flow cytometry of immune cells from MC38 tumor-bearing mice; type: in vivo, mouse; details: SMC18 treatment vs NS
Method: At the end of treatment, the tumor-bearing mice were euthanized, and the tumor tissues were removed, minced and enzymatically digested with DNAase I (DN25, Sigma) and collagenase IV (17,104–019, Invitrogen) at 37 °C for 40 min. The digested tumor suspensions were filtered by nylon filter. Immune cell infiltration in the tumor tissue was analyzed by flow cytometry. For the detection of CD8^+ T cells at the tumor site, single-cell suspensions were stained with anti-mouse CD45-FITC (30-F11, eBioscience), anti-mouse CD3-PerCP-eFluor710 (17A2, eBioscience), anti-mouse CD8α-PE (53–6.7, eBioscience) or isotype control. To detect macrophage infiltration at tumor sites, single cell suspensions were stained with anti-mouse CD45-FITC (30-F11, eBioscience), anti-mouse CD11b-eFluor450 (M1/70, eBioscience), anti-mouse F4/80-PerCP-Cyanine5.5 (BM8, eBioscience), anti-mouse CD11c-APC (M418, eBioscience), anti-mouse CD206-PE (MR6F3, eBioscience) or isotype control.
To assess cytokine secretion from tumor sites and immune organs, spleens, draining lymph nodes and tumors from mice were dissected and ground into single cell suspensions, followed by filtration and incubation with […] transport inhibitors, PMA (20 ng/mL, 16561–29-8, Sigma) and ionomycin (1 µM, I0634, Sigma) for 4 h in a 37 °C incubator. The single cell suspensions of draining lymph nodes and spleens were stained with anti-mouse CD3-PerCP-eFluor710 (17A2, eBioscience), anti-mouse CD8α-PE (53–6.7, eBioscience), anti-mouse IFN-γ-APC (XMG1.2, eBioscience) or isotype control. Tumor cells were stained with anti-mouse CD45-FITC (30-F11, eBioscience), anti-mouse CD3-PerCP-eFluor710 (17A2, eBioscience), anti-mouse CD8α-PE (53–6.7, eBioscience), anti-mouse IFN-γ-APC (XMG1.2, eBioscience) or isotype control. Finally, the samples were detected by flow cytometry.

T2 sequence (P97797 32-373 limits assumed): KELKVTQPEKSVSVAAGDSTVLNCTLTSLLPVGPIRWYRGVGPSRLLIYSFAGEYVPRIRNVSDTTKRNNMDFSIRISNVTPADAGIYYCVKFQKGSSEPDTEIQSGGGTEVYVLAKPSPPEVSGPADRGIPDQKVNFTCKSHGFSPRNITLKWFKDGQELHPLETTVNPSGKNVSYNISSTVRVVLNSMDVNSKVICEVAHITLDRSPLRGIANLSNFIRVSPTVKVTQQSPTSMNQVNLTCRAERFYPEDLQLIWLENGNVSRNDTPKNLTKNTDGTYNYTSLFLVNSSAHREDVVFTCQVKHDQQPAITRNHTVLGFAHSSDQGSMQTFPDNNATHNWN
T3 sequence (Q9NZQ7 19-239 limits assumed): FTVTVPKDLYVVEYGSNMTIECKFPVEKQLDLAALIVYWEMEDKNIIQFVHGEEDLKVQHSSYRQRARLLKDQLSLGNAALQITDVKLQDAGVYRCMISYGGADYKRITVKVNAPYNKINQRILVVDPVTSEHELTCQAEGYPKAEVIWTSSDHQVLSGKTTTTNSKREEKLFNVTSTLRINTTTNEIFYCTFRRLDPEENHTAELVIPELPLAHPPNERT
T1 sequence (P78324 32-137 limits assumed): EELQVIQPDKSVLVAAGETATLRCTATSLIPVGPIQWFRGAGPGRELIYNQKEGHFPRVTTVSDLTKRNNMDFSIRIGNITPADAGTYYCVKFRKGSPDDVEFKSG

Work on `Cc1cc(C)cc(NS(=O)(=O)c2ccc3[nH]cc(C(=O)NCCc4ccccc4)c(=O)c3c2)c1` [SMC18] yielded a Kd (human SIRPα (hSIRPα)) of 0.55 ± 0.1 µM, an IC50 (murine CD47/SIRPα) of 58.9 ± 3.2 µM and an IC50 (human PD-1/PD-L1) of 19.7 ± 7 µM. The “toxicity towards B16-OVA cells (MTT)” value (B16-OVA cells) was “only mild toxicity”, the “amount of CD8+ T cell secreting IFN-γ in the tumor tissue” value (MC38 tumor-bearing mice; MC38 tumor) was “significantly increased” and the “infiltration of CD8+ T cells in the tumor tissue” value (MC38 tumor-bearing mice; MC38 tumor) was “significantly increased”. For the same molecule, the “amount of CD8+ T secreting IFN-γ in the draining lymph nodes” value (MC38 tumor-bearing mice) was “increased”, the “amount of CD8+ T secreting IFN-γ in the spleen” value (MC38 tumor-bearing mice) was “increased” and the “proportion of M1-type macrophages in tumor” value (MC38 tumor-bearing mice) was “increased”.
